In US20080103127A1, “METHODS FOR TREATING DISRUPTIVE BEHAVIOR DISORDERS” (priority 2006, published 2008):

System: general behavior of male mice
Test: General behavior of male mice by visual observation using a checklist of behaviors
Format: in vivo
Settings: for Number of Mice Affected: Decreased Open Field Activity / Number of Mice Affected: Decreased Startle Reflex / Number of Mice Affected: Extensor Limb Tone (hind limb) / Number of Mice Affected: Impaired Horizontal Screen Performance / Number of Mice Affected: Impaired Visual Placing Reflex / Number of Mice Affected: Locomotor Ataxia / Number of Mice Affected: Loss of Corneal Reflex / Number of Mice Affected: Loss of Pinnal Reflex / Number of Mice Affected: Loss of Righting Reflex / Number of Mice Affected: Passive Response to Handling / Number of Mice Affected: Reduced Skin Plasticity / Number of Mice Affected: Soft Body Tone / Number of Mice Affected: Tail Pinch Response, Absent: N = 3/group
Procedure: The effects of test compound on general behavior were evaluated by visual observation using a checklist of behaviors.

With `NC(=O)OC[C@@H](O)c1ccccc1Cl` [COMPOUND #7, carisbamate] the “Number of Mice Affected: Decreased Open Field Activity” value (40 mg/kg p.o., 1 h) was 0, the “Number of Mice Affected: Decreased Startle Reflex” value (“Number … Decreased Startle Reflex” for short) (40 mg/kg p.o., 1 h) was 0 and the “Number of Mice Affected: Extensor Limb Tone (hind limb)” value (shortened to “Number of Mice Affected … (hind limb)”) (40 mg/kg p.o., 1 h) was 0. For the same molecule, the “Number of Mice Affected: Impaired Horizontal Screen Performance” value (40 mg/kg p.o., 1 h) was 0, the “Number of Mice Affected: Impaired Visual Placing Reflex” value (40 mg/kg p.o., 1 h) was 0 and the “Number of Mice Affected: Locomotor Ataxia” value (from here on “Number … Locomotor Ataxia”) (40 mg/kg p.o., 1 h) was 0. For the same molecule, the “Number of Mice Affected: Loss of Corneal Reflex” value (shortened to “Number … Loss of Corneal Reflex”) (40 mg/kg p.o., 1 h) was 0, the “Number of Mice Affected: Loss of Pinnal Reflex” value (from here on “Number … Loss of Pinnal Reflex”) (40 mg/kg p.o., 1 h) was 0 and the “Number of Mice Affected: Loss of Righting Reflex” value (“Number … Loss of Righting Reflex” below) (40 mg/kg p.o., 1 h) was 0. The “Number of Mice Affected: Passive Response to Handling” value (“Number of Mice Affected … to Handling” for short) (40 mg/kg p.o., 1 h) was 0, the “Number of Mice Affected: Reduced Skin Plasticity” value (shortened to “Number … Reduced Skin Plasticity”) (40 mg/kg p.o., 1 h) was 0 and the “Number of Mice Affected: Soft Body Tone” value (40 mg/kg p.o., 1 h) was 0. For the same molecule, the “Number of Mice Affected: Tail Pinch Response, Absent” value (shortened to “Number of Mice Affected … Absent”) (40 mg/kg p.o., 1 h) was 0, the “Number of Mice Affected: Decreased Open Field Activity” value (40 mg/kg p.o., 4 h) was 0 and the “Number … Decreased Startle Reflex” value (40 mg/kg p.o., 4 h) was 0. For the same molecule, the “Number of Mice Affected … (hind limb)” value (40 mg/kg p.o., 4 h) was 0, the “Number of Mice Affected: Impaired Horizontal Screen Performance” value (40 mg/kg p.o., 4 h) was 0 and the “Number of Mice Affected: Impaired Visual Placing Reflex” value (40 mg/kg p.o., 4 h) was 0. For the same molecule, the “Number … Locomotor Ataxia” value (40 mg/kg p.o., 4 h) was 0, the “Number … Loss of Corneal Reflex” value (40 mg/kg p.o., 4 h) was 0 and the “Number … Loss of Pinnal Reflex” value (40 mg/kg p.o., 4 h) was 0. For the same molecule, the “Number … Loss of Righting Reflex” value (40 mg/kg p.o., 4 h) was 0, the “Number of Mice Affected … to Handling” value (40 mg/kg p.o., 4 h) was 0 and the “Number … Reduced Skin Plasticity” value (40 mg/kg p.o., 4 h) was 0. For the same molecule, the “Number of Mice Affected: Soft Body Tone” value (40 mg/kg p.o., 4 h) was 0, the “Number of Mice Affected … Absent” value (40 mg/kg p.o., 4 h) was 0 and the “Number of Mice Affected: Decreased Open Field Activity” value (100 mg/kg p.o., 1 h) was 0. The “Number … Decreased Startle Reflex” value (100 mg/kg p.o., 1 h) was 0, the “Number of Mice Affected … (hind limb)” value (100 mg/kg p.o., 1 h) was 0 and the “Number of Mice Affected: Impaired Horizontal Screen Performance” value (100 mg/kg p.o., 1 h) was 0. The “Number of Mice Affected: Impaired Visual Placing Reflex” value (100 mg/kg p.o., 1 h) was 0, the “Number … Locomotor Ataxia” value (100 mg/kg p.o., 1 h) was 0 and the “Number … Loss of Corneal Reflex” value (100 mg/kg p.o., 1 h) was 0. For the same molecule, the “Number … Loss of Pinnal Reflex” value (100 mg/kg p.o., 1 h) was 0, the “Number … Loss of Righting Reflex” value (100 mg/kg p.o., 1 h) was 0 and the “Number of Mice Affected … to Handling” value (100 mg/kg p.o., 1 h) was 0. For the same molecule, the “Number … Reduced Skin Plasticity” value (100 mg/kg p.o., 1 h) was 0, the “Number of Mice Affected: Soft Body Tone” value (100 mg/kg p.o., 1 h) was 0 and the “Number of Mice Affected … Absent” value (100 mg/kg p.o., 1 h) was 0. For the same molecule, the “Number of Mice Affected: Decreased Open Field Activity” value (100 mg/kg p.o., 4 h) was 0, the “Number … Decreased Startle Reflex” value (100 mg/kg p.o., 4 h) was 0 and the “Number of Mice Affected … (hind limb)” value (100 mg/kg p.o., 4 h) was 0. For the same molecule, the “Number of Mice Affected: Impaired Horizontal Screen Performance” value (100 mg/kg p.o., 4 h) was 0, the “Number of Mice Affected: Impaired Visual Placing Reflex” value (100 mg/kg p.o., 4 h) was 0 and the “Number … Locomotor Ataxia” value (100 mg/kg p.o., 4 h) was 0. For the same molecule, the “Number … Loss of Corneal Reflex” value (100 mg/kg p.o., 4 h) was 0, the “Number … Loss of Pinnal Reflex” value (100 mg/kg p.o., 4 h) was 0 and the “Number … Loss of Righting Reflex” value (100 mg/kg p.o., 4 h) was 0. For the same molecule, the “Number of Mice Affected … to Handling” value (100 mg/kg p.o., 4 h) was 0, the “Number … Reduced Skin Plasticity” value (100 mg/kg p.o., 4 h) was 0 and the “Number of Mice Affected: Soft Body Tone” value (100 mg/kg p.o., 4 h) was 0. For the same molecule, the “Number of Mice Affected … Absent” value (100 mg/kg p.o., 4 h) was 0, the “effect on general behavior in mice” value (300 mg/kg p.o.) was “produced sedation” and the “Number of Mice Affected: Decreased Open Field Activity” value (300 mg/kg p.o., 1 h) was 3. For the same molecule, the “Number … Decreased Startle Reflex” value (300 mg/kg p.o., 1 h) was 3, the “Number of Mice Affected … (hind limb)” value (300 mg/kg p.o., 1 h) was 3 and the “Number of Mice Affected: Impaired Horizontal Screen Performance” value (300 mg/kg p.o., 1 h) was 3. The “Number of Mice Affected: Impaired Visual Placing Reflex” value (300 mg/kg p.o., 1 h) was 3, the “Number … Locomotor Ataxia” value (300 mg/kg p.o., 1 h) was 0 and the “Number … Loss of Corneal Reflex” value (300 mg/kg p.o., 1 h) was 3. For the same molecule, the “Number … Loss of Pinnal Reflex” value (300 mg/kg p.o., 1 h) was 3, the “Number … Loss of Righting Reflex” value (300 mg/kg p.o., 1 h) was 3 and the “Number of Mice Affected … to Handling” value (300 mg/kg p.o., 1 h) was 3. The “Number … Reduced Skin Plasticity” value (300 mg/kg p.o., 1 h) was 3, the “Number of Mice Affected: Soft Body Tone” value (300 mg/kg p.o., 1 h) was 3 and the “Number of Mice Affected … Absent” value (300 mg/kg p.o., 1 h) was 3. For the same molecule, the “Number of Mice Affected: Decreased Open Field Activity” value (300 mg/kg p.o., 4 h) was 2, the “Number … Decreased Startle Reflex” value (300 mg/kg p.o., 4 h) was 0 and the “Number of Mice Affected … (hind limb)” value (300 mg/kg p.o., 4 h) was 2. For the same molecule, the “Number of Mice Affected: Impaired Horizontal Screen Performance” value (300 mg/kg p.o., 4 h) was 2, the “Number of Mice Affected: Impaired Visual Placing Reflex” value (300 mg/kg p.o., 4 h) was 0 and the “Number … Locomotor Ataxia” value (300 mg/kg p.o., 4 h) was 2. For the same molecule, the “Number … Loss of Corneal Reflex” value (300 mg/kg p.o., 4 h) was 0, the “Number … Loss of Pinnal Reflex” value (300 mg/kg p.o., 4 h) was 0 and the “Number … Loss of Righting Reflex” value (300 mg/kg p.o., 4 h) was 0. The “Number of Mice Affected … to Handling” value (300 mg/kg p.o., 4 h) was 0, the “Number … Reduced Skin Plasticity” value (300 mg/kg p.o., 4 h) was 0 and the “Number of Mice Affected: Soft Body Tone” value (300 mg/kg p.o., 4 h) was 2. The “Number of Mice Affected … Absent” value (300 mg/kg p.o., 4 h) was 0 and the “behavioral or physical signs in mice” value (doses up to 100 mg/kg p.o.) was “No behavioral or physical signs were observed”.
